According to patent US11078202B2, “β-lactamase inhibitor and use thereof” (priority 2018, dated 2021):
Where a name gives a salt, the structure may show the parent alone.

Columns and labels:
Assay type in all cases: cell-based
[1] = system: Acinetobacter baumannii XNWB 0007; test: MIC assay of test compounds combined with ceftazidime (8 μg/mL); conditions: ceftazidime 8 μg/mL fixed
Method in brief: (§1)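 Checkerboard-free combination MIC: test compound titrated against a constant partner antibiotic in cation-adjusted Mueller-Hinton broth. Inocula prepared from TSA colonies at OD600 0.1-0.15, diluted 300×. Plates shaken, incubated under normal atmosphere at 35±2 °C for 16-20 h; endpoints taken following CLSI.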

[2] = system: Klebsiella pneumoniae XNWB 0001; test: as above; conditions: ceftazidime 8 μg/mL fixed
Method in brief: as §1

[3] = system: Klebsiella pneumoniae XNWB 0002; test: as above; conditions: ceftazidime 8 μg/mL fixed
Method in brief: as §1

[4] = system: Klebsiella pneumoniae XNWB 0003; test: as above; conditions: ceftazidime 8 μg/mL fixed
Method in brief: as §1

[5] = system: Klebsiella pneumoniae XNWB 0004; test: as above; conditions: ceftazidime 8 μg/mL fixed
Method in brief: as §1

[6] = system: Klebsiella pneumoniae XNWB 0005; test: as above; conditions: ceftazidime 8 μg/mL fixed
Method in brief: as §1

[7] = system: Klebsiella pneumoniae XNWB 0006; test: as above; conditions: ceftazidime 8 μg/mL fixed
Method in brief: as §1

[8] = system: Pseudomonas aeruginosa XNWB 0008; test: as above; conditions: ceftazidime 8 μg/mL fixed
Method in brief: as §1

[9] = system: Acinetobacter baumannii XNWB 0007; test: MIC assay of test compounds combined with imipenem (4 μg/mL); conditions: imipenem 4 μg/mL fixed
Method in brief: as §1

[10] = system: Klebsiella pneumoniae XNWB 0001; test: as above; conditions: imipenem 4 μg/mL fixed
Method in brief: as §1

[11] = system: Klebsiella pneumoniae XNWB 0002; test: as above; conditions: imipenem 4 μg/mL fixed
Method in brief: as §1

[12] = system: Klebsiella pneumoniae XNWB 0003; test: as above; conditions: imipenem 4 μg/mL fixed
Method in brief: as §1

[13] = system: Klebsiella pneumoniae XNWB 0004; test: as above; conditions: imipenem 4 μg/mL fixed
Method in brief: as §1

[14] = system: Klebsiella pneumoniae XNWB 0005; test: as above; conditions: imipenem 4 μg/mL fixed
Method in brief: as §1

[15] = system: Klebsiella pneumoniae XNWB 0006; test: as above; conditions: imipenem 4 μg/mL fixed
Method in brief: as §1

[16] = system: Pseudomonas aeruginosa XNWB 0008; test: as above; conditions: imipenem 4 μg/mL fixed
Method in brief: as §1

[17] = system: Enterobacter aerogenes XNWB 0011; test: MIC assay of test compounds combined with ampicillin (8 μg/mL); conditions: ampicillin 8 μg/mL fixed
Method: (§2) The bacterial strains used for the minimum inhibitory concentration (MIC) test were frozen in a −80° C. ULT freezer and thawed 2 days before use. A small amount of frozen bacterial strains were scraped using a sterile inoculating loop, streaked onto a TSA solid culture dish for inoculation, and then cultured for 20-24 h at 35±2° C. in a normal atmospheric environment.
(§3) 5-10 colonies with similar morphology were picked from the culture dish using a sterile inoculating loop and then re-streaked onto a suitable solid culture dish. Then the dish was placed into a normal incubator for culture for 20-24 h at 35±2° C.
(§4) 5-10 single bacterial colonies were picked from the solid culture dish, resuspended in 500 μL of 0.9% NaCl, and adjusted to an OD600 of 0.1-0.15 with a spectrophotometer.
(§5) The bacteria were then diluted 300-fold with 1.1×CAMHB.
(§6) Test compounds of columns A-H: having a highest final test concentration of 64 μg/mL or 32 μg/mL, 2-fold diluted.
(§7) Dilution of test compounds: All test compounds were dissolved and diluted in dimethylsulfoxide (DMSO). 170 μL of 3.2 mg/mL (50*64 μg/mL) compound was transferred to wells (A1-H1) of column 1 of a dilution master plate and then 85 μL of DMSO was transferred to wells of other columns. Each compound was diluted 2-fold in sequence (i.e., 85 μL of compound was pipetted from column 1 into column 2 and mixed uniformly, 85 μL of compound was pipetted from column 2 into column 3 and mixed uniformly, then 85 μL of compound was pipetted from column 3 into column 4 and mixed uniformly, and so on until the dilution was done in column 11).
(§8) Preparation of an additive of ampicillin: Ampicillin was dissolved in ddH2O. 30 μL of 100 μg/mL (12.5×8 μg/mL) ampicillin was transferred to columns 1-11 of an additive plate, followed by the addition of 30 μL of ddH2O to column 12.
(§9) 2 μL of each compound in the dilution master plate of the test compounds was transferred to the corresponding well of the assay plates. In the mean time, 2 μL of 100% DMSO was transferred to the compound-free wells (GC and SC wells). (1) 8 μL of imipenem in the additive plate of imipenem was transferred to the corresponding wells of the assay plates; (2) 8 μL of ceftazidime in the additive plate of ceftazidime was transferred to the corresponding wells of the assay plates; (3) 8 μL of ampicillin in the additive plate of ampicillin was transferred to the corresponding wells of the assay plates.
(§10) 90 μL of corresponding bacterial inocula were added to wells (except for SC wells) of the assay plates.
(§11) After addition, the 6 assay plates were covered by sterile covers. The mixtures in the assay plates were centrifuged by a centrifuge at 1000 rpm for 30 s, and mixed uniformly by oscillating with a microplate oscillator at 800 rpm for 1 min, and then cultured in a common incubator for 16-20 h at 35±2° C.
(§12) The minimum inhibitory concentration of each compound was recorded by reference to guidelines from the Clinical and Laboratory Standards Institute.
(§13) The minimum inhibitory concentrations of the compounds of the present invention and antibiotics (imipenem, ceftazidime, and ampicillin) against 11 strains of bacteria were tested in this study by reference to the medium microdilution method as indicated by the Clinical and Laboratory Standards Institute. The effect of the test compounds in combination with imipenem, ceftazidime, and ampicillin was also tested. Compounds were diluted two-fold in 96-well plates from the highest detection concentration of 64 μg/mL. The test compounds were tested in combination with a fixed concentration of imipenem (4 μg/mL), ceftazidime (8 μg/mL), and ampicillin (8 μg/mL). The bacterial inocula in the assay plates were resuscitated from TSA and diluted in CAMHB, while growth controls (GC wells) and sterile controls (SC wells) were set up in the assay plates. […]

[18] = system: Escherichia coli XNWB 0009; test: as above; conditions: ampicillin 8 μg/mL fixed
Method: as §2, §3, §4, §5, §6, §7, §8, §9, §10, §11, §12, §13

[19] = system: Escherichia coli XNWB 0010; test: as above; conditions: ampicillin 8 μg/mL fixed
Method: as §2, §3, §4, §5, §6, §7, §8, §9, §10, §11, §12, §13

Compound	The minimum concentration of test compounds combined with ceftazidime (8 μg/mL) for bacteriostasis [1]	The minimum concentration of test compounds combined with ceftazidime (8 μg/mL) for bacteriostasis [2]	The minimum concentration of test compounds combined with ceftazidime (8 μg/mL) for bacteriostasis [3]	The minimum concentration of test compounds combined with ceftazidime (8 μg/mL) for bacteriostasis [4]	The minimum concentration of test compounds combined with ceftazidime (8 μg/mL) for bacteriostasis [5]	The minimum concentration of test compounds combined with ceftazidime (8 μg/mL) for bacteriostasis [6]	The minimum concentration of test compounds combined with ceftazidime (8 μg/mL) for bacteriostasis [7]	The minimum concentration of test compounds combined with ceftazidime (8 μg/mL) for bacteriostasis [8]	The minimum concentration of test compounds combined with imipenem (4 μg/mL) for bacteriostasis [9]	The minimum concentration of test compounds combined with imipenem (4 μg/mL) for bacteriostasis [10]	The minimum concentration of test compounds combined with imipenem (4 μg/mL) for bacteriostasis [11]	The minimum concentration of test compounds combined with imipenem (4 μg/mL) for bacteriostasis [12]	The minimum concentration of test compounds combined with imipenem (4 μg/mL) for bacteriostasis [13]	The minimum concentration of test compounds combined with imipenem (4 μg/mL) for bacteriostasis [14]	The minimum concentration of test compounds combined with imipenem (4 μg/mL) for bacteriostasis [15]	The minimum concentration of test compounds combined with imipenem (4 μg/mL) for bacteriostasis [16]	The minimum concentration of test compounds combined with ampicillin (8 μg/mL) for bacteriostasis [17]	The minimum concentration of test compounds combined with ampicillin (8 μg/mL) for bacteriostasis [18]	The minimum concentration of test compounds combined with ampicillin (8 μg/mL) for bacteriostasis [19]
N=C(N)NCC1(c2nnc([C@@H]3CC4(CC4)[C@@H]4CN3C(=O)N4OS(=O)(=O)O)o2)CC1 [Example 13, (1R,4S)-4-(5-(1-(guanidinomethyl)cyclopropyl)-1,3,4-oxadiazol-2-yl)-6-oxo-5,7-diazaspiro[bicyclo[3.2.1]octane-2,1′-cyclopropan]-7-yl sulfate]	B (B: 8-16 μg/mL)	A (A: <8 μg/mL)	A (A: <8 μg/mL)	A (A: <8 μg/mL)	B (B: 8-16 μg/mL)	A (A: <8 μg/mL)	A (A: <8 μg/mL)	B (B: 8-16 μg/mL)	C (C: 16-128 μg/mL)	A (A: <8 μg/mL)	A (A: <8 μg/mL)	A (A: <8 μg/mL)	A (A: <8 μg/mL)	A (A: <8 μg/mL)	A (A: <8 μg/mL)	A (A: <8 μg/mL)	A (A: <8 μg/mL)	A (A: <8 μg/mL)	A (A: <8 μg/mL)
NCCc1cc([C@@H]2CC3(CC3)[C@@H]3CN2C(=O)N3OS(=O)(=O)O)no1 [Example 41, (1R,4S)-4-(5-(2-aminoethyl)isoxazol-3-yl)-6-oxo-5,7-diazaspiro[bicyclo[3.2.1]octane-2,1′-cyclopropan]-7-yl sulfate]	C (C: 16-128 μg/mL)	A (A: <8 μg/mL)	A (A: <8 μg/mL)	A (A: <8 μg/mL)	B (B: 8-16 μg/mL)	A (A: <8 μg/mL)	A (A: <8 μg/mL)	C (C: 16-128 μg/mL)	C (C: 16-128 μg/mL)	A (A: <8 μg/mL)	A (A: <8 μg/mL)	A (A: <8 μg/mL)	A (A: <8 μg/mL)	A (A: <8 μg/mL)	A (A: <8 μg/mL)	A (A: <8 μg/mL)	B (B: 8-16 μg/mL)	A (A: <8 μg/mL)	A (A: <8 μg/mL)
